Measured values from ChEMBL document CHEMBL5523676, “Design, synthesis, and anti-cancer evaluation of C-14 arylcarbamate derivatives of andrographolide” (Bioorg Med Chem, 2024).
Blank lines part the entries; values can stand above or below the compound they belong to. Activity calls are given as the source filed them. The calls are words filed in the database; no cut-off is given here.

Tests used:
PANC-1 [1] = test: Antiproliferative activity against human PANC-1 cells assessed as inhibition of cell growth measured after 48 hrs by MTT assay; type: functional, cell-based; details: PANC-1, 48 h
MIA PaCa-2 [2] = test: Antiproliferative activity against human MIA PaCa-2 cells assessed as inhibition of cell growth measured after 48 hrs by MTT assay; type: functional, cell-based; details: MIA PaCa-2, 48 h
MIA PaCa-2 [3] = test: Antiproliferative activity against human MIA PaCa-2 cells assessed as suppression of cell growth at 30 uM measured after 48 hrs by MTT assay; type: functional, cell-based
PANC-1 [4] = test: Inhibition of cell migration in human PANC-1 cells at 10 uM incubated for 12 hrs by crystal violet staining based microscopic analysis; type: functional
PANC-1 [5] = test: Antiproliferative activity against human PANC-1 cells assessed as inhibition of cell growth at upto 20 uM measured after 12 hrs by MTT assay; type: functional, cell-based
PANC-1 [6] = test: Inhibition of colony formation in human PANC-1 cells assessed as decrease in colony numbers measured after 24 hrs by crystal violet staining based analysis; type: functional, cell-based; details: dose 1-30 µM
PANC-1 [7] = test: Inhibition of p53 R273H mutant protein level in human PANC-1 cells at 10 uM measured after 24 hrs by Western blot analysis; type: functional, cell-based
MIA PaCa-2 [8] = test: Inhibition of p53 […] mutant protein level in human MIA PaCa-2 cells at 20 uM measured after 24 hrs by Western blot analysis; type: functional, cell-based
PANC-1 [9] = test: Inhibition of p53 R273H protein level in human PANC-1 cells at 15 uM measured after 24 hrs by Western blot analysis; type: functional, cell-based
[10] = Antiproliferative activity against human HPDE cells assessed as inhibition of cell growth measured after 48 hrs by MTT assay; type: toxicity, cell-based
[11] = Antiproliferative activity against human HEK293 cells assessed as inhibition of cell growth measured after 48 hrs by MTT assay; type: toxicity, cell-based
[12] = Antiproliferative activity against human IMR-90 cells assessed as inhibition of cell growth measured after 48 hrs by MTT assay; type: toxicity, cell-based
MIA PaCa-2 [13] = test: Inhibition of cell migration in human MIA PaCa-2 cells at 10 uM incubated for 24 hrs by crystal violet staining based microscopic analysis; type: functional
MIA PaCa-2 [14] = test: Inhibition of colony formation in human MIA PaCa-2 cells at 1 to 30 uM measured after 24 hrs by crystal violet staining based analysis; type: functional, cell-based; details: dose 1-30 µM

Structure (SMILES): C=C1CC[C@@H]2[C@](C)(CO)[C@H](O)CC[C@@]2(C)[C@@H]1C/C=C1/C(=O)OC[C@H]1O [ANDROGRAPHOLIDE]
- IC50 (PANC-1 [1]): 20.4 µM
- IC50 (MIA PaCa-2 [2]): 21.1 µM
- Activity (MIA PaCa-2 [3]): Active
- inhibition (PANC-1 [4]): Active
- Activity (PANC-1 [5]): inactive
- inhibition (PANC-1 [6]): Dose-Dependent Effect

Structure (SMILES): C=C1CC[C@@H]2[C@]3(C)COC(C)(C)O[C@@H]3CC[C@@]2(C)[C@@H]1C/C=C1/C(=O)OC[C@H]1OC(=O)Nc1ccc(NC(C)=O)cc1
- IC50 (PANC-1 [1]): > 30 µM

Structure (SMILES): C=C1CC[C@@H]2[C@]3(C)COC(C)(C)O[C@@H]3CC[C@@]2(C)[C@@H]1C/C=C1/C(=O)OC[C@H]1OC(=O)Nc1ccc(Cl)cc1
- IC50 (PANC-1 [1]): 29.1 µM

Structure (SMILES): C=C1CC[C@@H]2[C@]3(C)COC(C)(C)O[C@@H]3CC[C@@]2(C)[C@@H]1C/C=C1/C(=O)OC[C@H]1OC(=O)Nc1cc(C)cc(C)c1
- IC50 (PANC-1 [1]): > 30 µM

Structure (SMILES): C=C1CC[C@@H]2[C@]3(C)COC(C)(C)O[C@@H]3CC[C@@]2(C)[C@@H]1C/C=C1/C(=O)OC[C@H]1OC(=O)Nc1cccc(C(F)(F)F)c1
- IC50 (PANC-1 [1]): > 30 µM

Structure (SMILES): C=C1CC[C@@H]2[C@]3(C)COC(C)(C)O[C@@H]3CC[C@@]2(C)[C@@H]1C/C=C1/C(=O)OC[C@H]1OC(=O)Nc1ccc(F)cc1F
- IC50 (PANC-1 [1]): > 30 µM
- Activity (MIA PaCa-2 [3]): Active

Compounds with a lower IC50 (PANC-1 [1]), results first:

- IC50 (PANC-1 [1]): 10.8 µM
Structure (SMILES): C=C1CC[C@@H]2[C@]3(C)COC(C)(C)O[C@@H]3CC[C@@]2(C)[C@@H]1C/C=C1/C(=O)OC[C@H]1OC(=O)Nc1cccc(OC)c1

- IC50 (PANC-1 [1]): 10.9 µM
- IC50 (MIA PaCa-2 [2]): > 30 µM
Structure (SMILES): C=C1CC[C@@H]2[C@]3(C)COC(C)(C)O[C@@H]3CC[C@@]2(C)[C@@H]1C/C=C1/C(=O)OC[C@H]1OC(=O)Nc1cccc(C(C)=O)c1
- inhibition (PANC-1 [7]): Active
- inhibition (MIA PaCa-2 [8]): Active

- IC50 (PANC-1 [1]): 15.2 µM
Structure (SMILES): C=C1CC[C@@H]2[C@]3(C)COC(C)(C)O[C@@H]3CC[C@@]2(C)[C@@H]1C/C=C1/C(=O)OC[C@H]1OC(=O)Nc1cccc(C#N)c1
- inhibition (PANC-1 [9]): Active

- IC50 (PANC-1 [1]): 9.56 µM
- IC50 (MIA PaCa-2 [2]): 25.7 µM
Structure (SMILES): C=C1CC[C@@H]2[C@]3(C)COC(C)(C)O[C@@H]3CC[C@@]2(C)[C@@H]1C/C=C1/C(=O)OC[C@H]1OC(=O)Nc1ccccc1
- IC50 at 48 h [10]: > 30 µM
- IC50 at 48 h [11]: > 30 µM
- IC50 at 48 h [12]: > 30 µM
- inhibition (PANC-1 [7]): Active
- Activity (MIA PaCa-2 [3]): Active
- inhibition (MIA PaCa-2 [8]): Active
- inhibition (PANC-1 [4]): Active
- Activity (PANC-1 [5]): inactive
- inhibition (MIA PaCa-2 [13]): Active
- inhibition (PANC-1 [6]): Dose-Dependent Effect
- inhibition (MIA PaCa-2 [14]): Active

- IC50 (PANC-1 [1]): 16 µM
Structure (SMILES): C=C1CC[C@@H]2[C@]3(C)COC(C)(C)O[C@@H]3CC[C@@]2(C)[C@@H]1C/C=C1/C(=O)OC[C@H]1OC(=O)Nc1cccc(Br)c1

- IC50 (PANC-1 [1]): 13.6 µM
Structure (SMILES): C=C1CC[C@@H]2[C@]3(C)COC(C)(C)O[C@@H]3CC[C@@]2(C)[C@@H]1C/C=C1/C(=O)OC[C@H]1OC(=O)Nc1ccc([N+](=O)[O-])cc1

- IC50 (PANC-1 [1]): 15.1 µM
- IC50 (MIA PaCa-2 [2]): > 30 µM
Structure (SMILES): C=C1CC[C@@H]2[C@]3(C)COC(C)(C)O[C@@H]3CC[C@@]2(C)[C@@H]1C/C=C1/C(=O)OC[C@H]1OC(=O)Nc1cc(F)ccc1F
- inhibition (PANC-1 [9]): Active

- IC50 (PANC-1 [1]): 10.2 µM
- IC50 (MIA PaCa-2 [2]): > 30 µM
Structure (SMILES): C=C1CC[C@@H]2[C@]3(C)COC(C)(C)O[C@@H]3CC[C@@]2(C)[C@@H]1C/C=C1/C(=O)OC[C@H]1OC(=O)Nc1ccc(Br)cc1
